*1 amine or outer side, *2 acyl side, *3 side chain or, on linkers, in order; H or OH if unused. Where a SMILES comes first, the peptide text is derived from it. Bridges are numbered along the chain shown (N, C = ends). [ ]: non-standard residue; d: D form. The star is where a group is joined. X5 = NC(=O)[C@H](CCCCNC(=O)CN1CCN(CC(=O)O)CCN(CC(=O)O)CCN(CC(=O)O)CC1)NC(=O)CCC(=O)NCCCOCCOCCOCCCN*; X3 = O=C(O)CN1CCN(CC(=O)O)CCN(CC(=O)NCCCOCCOCCOCCCN*)CCN(CC(=O)O)CC1; Trp(5-Cl) = N[C@@H](Cc1c[nH]c2ccc(Cl)cc12)C(=O)O; Pyridine(2,6-diCH2) = c1cc(C[*:1])nc(C[*:2])c1; Trp(7-aza) = N[C@@H](Cc1c[nH]c2ncccc12)C(=O)O; 2Nal = N[C@@H](Cc1ccc2ccccc2c1)C(=O)O; mXylylene = c1cc(C[*:1])cc(C[*:2])c1; Bta = N[C@@H](Cc1csc2ccccc12)C(=O)O; Hyp = O=C(O)[C@@H]1C[C@@H](O)CN1; NMeE = CN[C@@H](CCC(=O)O)C(=O)O; Suc = O=C(CCC(=O)[*:2])[*:1]; Tle = CC(C)(C)[C@H](N)C(=O)O; Thp = NC1(C(=O)O)CCOCC1; Aib = CC(C)(N)C(=O)O

In this assay the target is T1, GIPR (CHO-K1-hGIPR cells) (Homo sapiens, UniProt P48546).
T1 construct: host or cells: CHO-K1
T1 sequence (P48546 22-466): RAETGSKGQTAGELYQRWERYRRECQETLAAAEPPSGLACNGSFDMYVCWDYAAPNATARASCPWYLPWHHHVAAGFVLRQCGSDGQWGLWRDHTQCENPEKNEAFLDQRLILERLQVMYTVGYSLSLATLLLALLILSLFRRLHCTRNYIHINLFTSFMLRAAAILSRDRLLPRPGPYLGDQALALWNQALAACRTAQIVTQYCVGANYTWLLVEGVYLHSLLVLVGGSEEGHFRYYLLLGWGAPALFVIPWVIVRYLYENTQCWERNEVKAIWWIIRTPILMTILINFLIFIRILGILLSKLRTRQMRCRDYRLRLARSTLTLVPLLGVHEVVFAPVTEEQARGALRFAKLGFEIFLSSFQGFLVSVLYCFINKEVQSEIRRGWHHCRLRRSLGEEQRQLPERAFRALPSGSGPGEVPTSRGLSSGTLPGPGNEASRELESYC
Put plainly: FACS binding assay. The following applies: competition with 20 nM GIP-057, 4° C. for 1 hour, read-out: pIC50 Category (converted). A digest of the protocol: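 Steps: detach CHO-K1-hGIPR cells (Accutase); wash in PBS/1% FCS; adjust to 500.000 cells per mL; wash ice-cold; incubate APC-streptavidin 1 μg/mL, 30 min on ice; wash twice; acquire on flow cytometer; fit MFI-concentration data with a four-parameter logistic model.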
For `CC(=O)N[C@@H](CC(=O)O)C(=O)N[C@@H](Cc1c[nH]c2ccccc12)C(=O)N[C@@H](Cc1c[nH]c2ccc(Cl)cc12)C(=O)N1C[C@H](O)C[C@H]1C(=O)N[C@@H](CCC(=O)O)C(=O)N[C@H](CC(C)C)C(=O)N[C@H]1CSCc2cccc(n2)CSC[C@@H](C(N)=O)NC(=O)[C@H](Cc2ccccc2)NC(=O)[C@H](CC(C)C)NC(=O)C2(CCOCC2)NC1=O` [GIP-266, Ac-Asp-Trp-5Clw-Hyp-Glu-leu-[Cys(2Lut)-Thp-Leu-Phe-Cys]-NH2] (Ac-DW[Trp(5-Cl)][Hyp]E[dL]C[Thp]LFC-NH2; linker 7-11 via Pyridine(2,6-diCH2)), the IC50 is 10 to 79.4 nM.
The result for `CC[C@H](C)[C@@H]1NC(=O)[C@H](CC(C)C)NC(=O)C2(CCOCC2)NC(=O)[C@@H](NC(=O)[C@@H](CC(C)C)NC(=O)[C@H](CCC(=O)O)NC(=O)[C@@H]2C[C@@H](O)CN2C(=O)[C@H](Cc2c[nH]c3ncccc23)NC(=O)[C@H](Cc2c[nH]c3ccccc23)NC(=O)[C@H](CC(=O)O)NC(C)=O)CSCc2cccc(n2)CSC[C@@H](C(N)=O)NC1=O` [GIP-267, Ac-Asp-Trp-7Nw-Hyp-Glu-leu-[Cys(2Lut)-Thp-Leu-Ile-Cys]-NH2] (Ac-DW[Trp(7-aza)][Hyp]E[dL]C[Thp]LIC-NH2; linker 7-11 via Pyridine(2,6-diCH2)) reads 10 to 79.4 nM; that for `CC[C@H](C)[C@@H]1NC(=O)[C@H](CC(C)C)NC(=O)[C@@H](C)NC(=O)[C@@H](NC(=O)[C@@H](CC(C)C)NC(=O)[C@H](CCC(=O)O)NC(=O)[C@@H]2CCCN2C(=O)[C@H](Cc2c[nH]c3ccccc23)NC(=O)[C@H](Cc2c[nH]c3ccccc23)NC(=O)[C@H](CC(=O)O)NC(=O)CCC(=O)NCCCOCCOCCOCCCNC(=O)CN2CCN(CC(=O)O)CCN(CC(=O)O)CCN(CC(=O)O)CC2)CSCc2cccc(c2)CSC[C@@H](C(N)=O)NC1=O` [GIP-268, DOTA-Ttds-Asp-Trp-Trp-Pro-Glu-leu-[Cys(3MeBn)-ala-Leu-Ile-Cys]-NH2] ({X3-Suc}-DWWPE[dL]C[dA]LIC-NH2; linker 7-11 via mXylylene), 100 to 794 nM; that for `CC[C@H](C)[C@@H]1NC(=O)[C@H](CC(C)C)NC(=O)[C@@H](C)NC(=O)[C@@H](NC(=O)[C@H](CC(C)C)NC(=O)[C@@H](CCC(=O)O)NC(=O)[C@@H]2CCCN2C(=O)[C@H](Cc2c[nH]c3ccccc23)NC(=O)[C@H](Cc2c[nH]c3ccccc23)NC(=O)[C@H](CC(=O)O)NC(=O)CCC(=O)NCCCOCCOCCOCCCNC(=O)CN2CCN(CC(=O)O)CCN(CC(=O)O)CCN(CC(=O)O)CC2)CSCc2cccc(c2)CSC[C@@H](C(N)=O)NC1=O` [GIP-269, DOTA-Ttds-Asp-Trp-Trp-Pro-glu-Leu-[Cys(3MeBn)-ala-Leu-Ile-Cys]-NH2] ({X3-Suc}-DWWP[dE]LC[dA]LIC-NH2; linker 7-11 via mXylylene), 100 to 794 nM.
The value for `CC[C@H](C)[C@@H]1NC(=O)[C@H](CC(C)C)NC(=O)[C@@H](C)NC(=O)[C@@H](NC(=O)[C@H](CC(C)C)NC(=O)[C@H](CCC(=O)O)NC(=O)[C@@H]2CCCN2C(=O)[C@H](Cc2c[nH]c3ccccc23)NC(=O)[C@H](Cc2c[nH]c3ccccc23)NC(=O)[C@H](CC(=O)O)NC(=O)CCC(=O)NCCCOCCOCCOCCCNC(=O)CN2CCN(CC(=O)O)CCN(CC(=O)O)CCN(CC(=O)O)CC2)CSCc2cccc(c2)CSC[C@@H](C(N)=O)NC1=O` [GIP-271, DOTA-Ttds-asp-Trp-Trp-Pro-Glu-Leu-[Cys(3MeBn)-ala-Leu-Ile-Cys]-NH2] ({X3-Suc}-DWWPELC[dA]LIC-NH2; linker 7-11 via mXylylene) was 100 to 794 nM.
The value for `CC[C@H](C)[C@@H]1NC(=O)[C@H](CC(C)C)NC(=O)C(C)(C)NC(=O)[C@@H](NC(=O)[C@H](CC(C)C)NC(=O)[C@H](CCC(=O)O)NC(=O)[C@@H]2CCCN2C(=O)[C@H](Cc2c[nH]c3ccccc23)NC(=O)[C@H](Cc2ccc3ccccc3c2)NC(=O)[C@H](CC(=O)O)NC(C)=O)CSCc2cccc(c2)CSC[C@@H](C(=O)NCCCOCCOCCOCCCNC(=O)CCC(=O)N[C@@H](CCCCNC(=O)CN2CCN(CC(=O)O)CCN(CC(=O)O)CCN(CC(=O)O)CC2)C(N)=O)NC1=O` [GIP-272, Ac-Asp-2Ni-Trp-Pro-Glu-Leu-[Cys(3MeBn)-Aib-Leu-Ile-Cys]-Ttds-Lys(DOTA)-NH2] (Ac-D[2Nal]WPELC[Aib]LIC-X5; linker 7-11 via mXylylene) was 100 to 794 nM.
Regarding `CC[C@H](C)[C@@H]1NC(=O)[C@H](CC(C)C)NC(=O)C(C)(C)NC(=O)[C@@H](NC(=O)[C@H](CC(C)C)NC(=O)[C@H](CCC(=O)O)NC(=O)[C@@H]2CCCN2C(=O)[C@H](Cc2c[nH]c3ccccc23)NC(=O)[C@H](Cc2csc3ccccc23)NC(=O)[C@H](CC(=O)O)NC(C)=O)CSCc2cccc(c2)CSC[C@@H](C(=O)NCCCOCCOCCOCCCNC(=O)CCC(=O)N[C@@H](CCCCNC(=O)CN2CCN(CC(=O)O)CCN(CC(=O)O)CCN(CC(=O)O)CC2)C(N)=O)NC1=O` [GIP-273, Ac-Asp-Bta-Trp-Pro-Glu-Leu-[Cys(3MeBn)-Aib-Leu-Ile-Cys]-Ttds-Lys(DOTA)-NH2] (Ac-D[Bta]WPELC[Aib]LIC-X5; linker 7-11 via mXylylene), the IC50 was 100 to 794 nM.
With `CC[C@H](C)[C@@H]1NC(=O)[C@H](CC(C)C)NC(=O)C(C)(C)NC(=O)[C@@H](NC(=O)[C@H](CC(C)C)NC(=O)[C@H](CCC(=O)O)N(C)C(=O)[C@@H]2CCCN2C(=O)[C@H](Cc2c[nH]c3ccccc23)NC(=O)[C@H](Cc2c[nH]c3ccccc23)NC(=O)[C@H](CC(=O)O)NC(C)=O)CSCc2cccc(c2)CSC[C@@H](C(=O)NCCCOCCOCCOCCCNC(=O)CCC(=O)N[C@@H](CCCCNC(=O)CN2CCN(CC(=O)O)CCN(CC(=O)O)CCN(CC(=O)O)CC2)C(N)=O)NC1=O` [GIP-274, Ac-Asp-Trp-Trp-Pro-Nme-Leu-[Cys(3MeBn)-Aib-Leu-Ile-Cys]-Ttds-Lys(DOTA)-NH2] (Ac-DWWP[NMeE]LC[Aib]LIC-X5; linker 7-11 via mXylylene), the IC50 is 100 to 794 nM.
The result for `CC[C@H](C)[C@@H]1NC(=O)[C@H](CC(C)C)NC(=O)C(C)(C)NC(=O)[C@@H](NC(=O)[C@@H](NC(=O)[C@H](CCC(=O)O)NC(=O)[C@@H]2CCCN2C(=O)[C@H](Cc2c[nH]c3ccccc23)NC(=O)[C@H](Cc2c[nH]c3ccccc23)NC(=O)[C@H](CC(=O)O)NC(C)=O)C(C)(C)C)CSCc2cccc(c2)CSC[C@@H](C(=O)NCCCOCCOCCOCCCNC(=O)CCC(=O)N[C@@H](CCCCNC(=O)CN2CCN(CC(=O)O)CCN(CC(=O)O)CCN(CC(=O)O)CC2)C(N)=O)NC1=O` [GIP-275, Ac-Asp-Trp-Trp-Pro-Glu-Tle-[Cys(3MeBn)-Aib-Leu-Ile-Cys]-Ttds-Lys(DOTA)-NH2] (Ac-DWWPE[Tle]C[Aib]LIC-X5; linker 7-11 via mXylylene) reads 100 to 794 nM.
The value for `CC[C@H](C)[C@@H]1NC(=O)[C@H](C(C)(C)C)NC(=O)C(C)(C)NC(=O)[C@@H](NC(=O)[C@H](CC(C)C)NC(=O)[C@H](CCC(=O)O)NC(=O)[C@@H]2CCCN2C(=O)[C@H](Cc2c[nH]c3ccccc23)NC(=O)[C@H](Cc2c[nH]c3ccccc23)NC(=O)[C@H](CC(=O)O)NC(C)=O)CSCc2cccc(c2)CSC[C@@H](C(=O)NCCCOCCOCCOCCCNC(=O)CCC(=O)N[C@@H](CCCCNC(=O)CN2CCN(CC(=O)O)CCN(CC(=O)O)CCN(CC(=O)O)CC2)C(N)=O)NC1=O` [GIP-276, Ac-Asp-Trp-Trp-Pro-Glu-Leu-[Cys(3MeBn)-Aib-Tle-Ile-Cys]-Ttds-Lys(DOTA)-NH2] (Ac-DWWPELC[Aib][Tle]IC-X5; linker 7-11 via mXylylene) was 100 to 794 nM.

For the origin of these results see US20250296971A1, “GASTRIC INHIBITORY PEPTIDE RECEPTOR LIGANDS” (priority 2021, published 2025).
